{
  "source": "patent US20250027079A1",
  "about": "(priority 2020, published 2025)",
  "key": {"CLas [1]": {"system": "CLas", "type": "in vivo, Candidatus Liberibacter asiaticus", "conditions": "for effect on quantity of the bacterium (Liberibacter titer) in infected Citrus trees: FANA 5 μM, streptomycin sulfate 5 mg/mL, sampling 2, 7, 14, 30 days (FIG. 5); for Liberibacter repression (percent change in CLas titer): CLas-infected Citrus trees, root infusion 5 mL of 5 μM"}, "CLso [2]": {"system": "CLso", "type": "in vivo, Candidatus Liberibacter solanacearum", "conditions": "CLso infected potato, soil applied drench, one gallon pots (FIG. 8); infected untreated control ave. 39, uninfected healthy 66 cm"}, "CLso [3]": {"system": "CLso", "type": "in vivo, Candidatus Liberibacter solanacearum", "conditions": "for foliar disease symptoms (foliar symptom ranking) / products with the greatest foliar symptom reduction: 8 week trial; for foliar disease symptoms (foliar symptom ranking): soil application (FIG. 11B); for products with the greatest foliar symptom reduction: comparison among all products (FIG. 11B); for tuber disease symptoms (proportion of symptomatic tubers) compared to CLso infected Control tubers: 8 week trial (FIG. 11C)"}, "wDi gyrA gene": {"system": "wDi gyrA gene", "type": "cell-based, Wolbachia-Diaphorina"}, "CLas LigA gene": {"system": "CLas LigA gene", "type": "in vivo, Candidatus Liberibacter asiaticus"}, "CLas [4]": {"system": "CLas", "type": "in vivo, Candidatus Liberibacter asiaticus"}, "CLas [5]": {"system": "CLas", "type": "in vivo, Candidatus Liberibacter asiaticus", "remark": "listed apart in the source"}, "D. citri adults": {"system": "D. citri adults", "design": "species or system Diaphorina citri", "conditions": "in vivo"}},
  "note": "Counter-ions that a name gives are not always drawn. Like-named read-outs stand apart in the source and are kept apart here. {AF594} = Alexa Fluor 594 dye",
  "data": [
    {"compound": "[H]/N=C(/N)N[C@H]1[C@H](O)[C@@H](O)[C@H](O[C@@H]2O[C@@H](C)[C@](O)(C=O)[C@H]2O[C@@H]2O[C@@H](CO)[C@H](O)[C@@H](O)[C@@H]2NC)[C@@H](N/C(N)=N\\[H])[C@@H]1O", "note": "[streptomycin sulfate, reference compound]", "values": [
      {"measurement": "effect on quantity of the bacterium (Liberibacter titer) in infected Citrus trees", "setting": "CLas [1]; root infusion", "result": "did not significantly reduced"}
    ]},
    {"compound": "AATAAACGCAATGACCAATCC (FANA modification, further chemistry not given here) [CLso-1 GyrA-Ext-1, FANA ASO, CLso Gyrase-A]", "values": [
      {"measurement": "plant growth, average height", "setting": "CLso [2]", "result": 51, "unit": "centimeters"},
      {"measurement": "foliar disease symptoms (foliar symptom ranking)", "setting": "CLso [3]", "result": "significantly reduced"}
    ]},
    {"compound": "ATAACCTTGACGATCTGATTC (FANA modification, further chemistry not given here) [CLso-2 Gyr-Ext-2, FANA ASO, CLso Gyrase-A]", "values": [
      {"measurement": "plant growth, average height", "setting": "CLso [2]", "result": 51, "unit": "centimeters"},
      {"measurement": "products with the greatest foliar symptom reduction", "setting": "CLso [3]", "result": "most symptom reduction"},
      {"measurement": "foliar disease symptoms (foliar symptom ranking)", "setting": "CLso [3]", "result": "significantly reduced"}
    ]},
    {"compound": "AUAUCCTTGTCGTATCCCAGU (FANA modification, further chemistry not given here) [scramble control FANA, reference compound]", "values": [
      {"measurement": "expression of the wDi gyrA gene versus untreated cells", "setting": "wDi gyrA gene", "result": "No significant difference"},
      {"measurement": "amount of CLas LygA mRNA versus untreated psyllids", "setting": "CLas LigA gene; in vivo", "result": "no significant difference"},
      {"measurement": "CLas density (copy number) in psyllids", "setting": "CLas [4]; in vivo", "result": "No difference"},
      {"measurement": "number of viable wDi cells (wDi copy number, PMA-qPCR)", "setting": "wDi cells", "result": "high wDi copy number"},
      {"measurement": "toxicity of the FANA chemistry to the bacterial cells or the Drosophila S2 cells", "setting": "wDi cells", "result": "not toxic"}
    ]},
    {"compound": "CAAATCAGGTATAGCACGGCC (FANA modification, further chemistry not given here) [CLso-2Gyr, FANA ASO, CLso Gyrase A]", "values": [
      {"measurement": "foliar disease symptoms (foliar symptom ranking)", "setting": "CLso [3]", "result": "significantly reduced"}
    ]},
    {"compound": "CATTTTGTATATGCGAGGACA (FANA modification, further chemistry not given here) [CLsoDNAB-4, FANA ASO, CLso DnaB-Helicase C]", "values": [
      {"measurement": "tuber disease symptoms (proportion of symptomatic tubers) compared to CLso infected Control tubers", "setting": "CLso [3]", "result": "significantly reduced"},
      {"measurement": "foliar disease symptoms (foliar symptom ranking)", "setting": "CLso [3]", "result": "significantly reduced"}
    ]},
    {"compound": "CGATTAAAAGCTTGTCCAGCC (FANA modification, further chemistry not given here) [CLsoDNAB-3, FANA ASO, CLso DnaB-Helicase C]", "values": [
      {"measurement": "foliar disease symptoms (foliar symptom ranking)", "setting": "CLso [3]", "result": "significantly reduced"}
    ]},
    {"compound": "CGGCACAGCAATTAGAACGTC (FANA modification, further chemistry not given here) [LigA-FANA, FANA antisense oligo designed to target the CLas NAD-dependent DNA Ligase A gene]", "values": [
      {"measurement": "decrease of expression of the bacterial target gene (CLas LigA) compared to untreated psyllids", "setting": "CLas LigA gene; D. citri adults fed on excised Citrus leaves that took up 5 μM FANA solution, seven days, qRT-PCR (FIG. 2B)", "result": 75, "unit": "%"},
      {"measurement": "CLas LigA transcript level compared to insects treated with the scramble control", "setting": "CLas LigA gene; D. citri adults, 5 μM via leaves, seven days, p=0.009", "result": "significantly lower"},
      {"measurement": "CLas density (copy number) in psyllids", "setting": "CLas [4]; D. citri adults, artificial diet 5 μM, seven days post-treatment, qPCR of 16S rRNA gene (FIG. 4), versus untreated psyllids", "result": "significantly lower"},
      {"measurement": "Liberibacter repression (percent change in CLas titer)", "setting": "CLas [1]; seven days post treatment (FIG. 5)", "result": 51.6, "unit": "%"},
      {"measurement": "Liberibacter repression (percent change in CLas titer)", "setting": "CLas [1]; two days post treatment (FIG. 5)", "result": 81, "unit": "%"},
      {"measurement": "persistence of the suppression effect", "setting": "CLas [1]; root infusion, sampling period", "result": 30, "unit": "days"},
      {"measurement": "effect on quantity of the bacterium (Liberibacter titer) in infected Citrus trees", "setting": "CLas [1]; root infusion", "result": "significantly reduced"},
      {"measurement": "success of treated psyllids in transmitting the pathogen into citrus plants compared to untreated insects", "setting": "CLas [5]; psyllids treated seven days, 15 days inoculation access on Citrus macrophylla seedlings, p=0.018", "result": "less successful in transmitting the pathogen"},
      {"measurement": "CLas copy number detected in the citrus plants exposed to the treated psyllids", "setting": "CLas [5]; seedlings sampled three months later (FIG. 7)", "result": "significantly lower"}
    ]},
    {"compound": "GAAGAACGGGCGAACTTTTTG (chemistry not given here) [L. solanacearum CLso2 -GyrA host Potato]", "values": [
      {"measurement": "plant growth, average height", "setting": "CLso [2]", "result": 51, "unit": "centimeters"},
      {"measurement": "foliar disease symptoms (foliar symptom ranking)", "setting": "CLso [3]", "result": "significantly reduced"}
    ]},
    {"compound": "GATTGAAGGGCAGGGGAATTC (chemistry not given here)", "values": [
      {"measurement": "foliar disease symptoms (foliar symptom ranking)", "setting": "CLso [3]", "result": "significantly reduced"}
    ]},
    {"compound": "GCATCATTATTCACTAGGATAG (FANA modification, further chemistry not given here) [CLsoDNAB-1, FANA ASO, CLso DnaB-Helicase C]", "values": [
      {"measurement": "products with the greatest foliar symptom reduction", "setting": "CLso [3]", "result": "most symptom reduction"},
      {"measurement": "foliar disease symptoms (foliar symptom ranking)", "setting": "CLso [3]", "result": "significantly reduced"}
    ]},
    {"compound": "GGGAATATTCGTCGCCATACC (FANA modification, further chemistry not given here) [CLso-4Gyr, FANA ASO, CLso Gyrase A]", "values": [
      {"measurement": "foliar disease symptoms (foliar symptom ranking)", "setting": "CLso [3]", "result": "significantly reduced"}
    ]},
    {"compound": "TAGTTCCGATTTGTATGCATC (FANA modification, further chemistry not given here) [CLsoDnaB-6, FANA ASO, CLso DnaB-Helicase C]", "values": [
      {"measurement": "foliar disease symptoms (foliar symptom ranking)", "setting": "CLso [3]", "result": "significantly reduced"}
    ]},
    {"compound": "TATGGAAACAGCCTCAGATGC (FANA modification, further chemistry not given here) [CLsoDNAB-2, FANA ASO, CLso DnaB-Helicase C]", "values": [
      {"measurement": "tuber disease symptoms (proportion of symptomatic tubers) compared to CLso infected Control tubers", "setting": "CLso [3]", "result": "significantly reduced"},
      {"measurement": "foliar disease symptoms (foliar symptom ranking)", "setting": "CLso [3]", "result": "significantly reduced"}
    ]},
    {"compound": "TATTACGATAGATCCTCGACC (FANA modification, further chemistry not given here) [CLso-2Gyr-Ext-3, FANA ASO, CLso Gyrase A]", "values": [
      {"measurement": "foliar disease symptoms (foliar symptom ranking)", "setting": "CLso [3]", "result": "significantly reduced"}
    ]},
    {"compound": "TGGTATGGCAACCAATATTCC (FANA modification, further chemistry not given here) [gyrA-FANA]", "values": [
      {"measurement": "reduction in the amount of the target mRNA (wDi gyrA) compared to untreated cells", "setting": "wDi gyrA gene; S2-wDi cells, 5 μM, seven days post-treatment, qRT-PCR (FIG. 2A)", "result": 30, "unit": "%"},
      {"measurement": "wDi gyrA transcript level compared to cells treated with the scramble control", "setting": "wDi gyrA gene; S2-wDi cells, 5 μM, seven days, p=0.009", "result": "significantly lower"},
      {"measurement": "number of viable wDi cells (wDi copy number, PMA-qPCR)", "setting": "wDi cells; isolated wDi cells, 5 μM, four days, versus untreated or scramble control (FIG. 3)", "result": "greatly reduced"}
    ]},
    {"compound": "TGTATATGCGAGGACATCGTC (FANA modification, further chemistry not given here) [CLso-DnaB-7, FANA ASO, CLso DnaB-Helicase C]", "values": [
      {"measurement": "foliar disease symptoms (foliar symptom ranking)", "setting": "CLso [3]", "result": "significantly reduced"}
    ]},
    {"compound": "TTCTATCAGGGTAAATCGCTC (FANA modification, further chemistry not given here) [CLso-2 Gyr-Ext-4, FANA ASO, CLso Gyrase-A]", "values": [
      {"measurement": "plant growth, average height", "setting": "CLso [2]", "result": 51, "unit": "centimeters"},
      {"measurement": "tuber disease symptoms (proportion of symptomatic tubers) compared to CLso infected Control tubers", "setting": "CLso [3]", "result": "significantly reduced"},
      {"measurement": "foliar disease symptoms (foliar symptom ranking)", "setting": "CLso [3]", "result": "significantly reduced"}
    ]},
    {"compound": "TTGTCCAGCCATATCAATAGC (FANA modification, further chemistry not given here) [CLsoDnaB-5, FANA ASO, CLso DnaB-Helicase C]", "values": [
      {"measurement": "foliar disease symptoms (foliar symptom ranking)", "setting": "CLso [3]", "result": "significantly reduced"}
    ]},
    {"compound": "fluorophore-tagged FANA oligo control: FANA ASO with scramble sequence [SEQ ID NO: 1 and SEQ ID NO: 2] tagged with Alexa Fluor 594 at its 5′ end (chain 1 ACTGGGATACGACAAGGATAT; chain 2 TCTTGGAACAGCATAGGGACA; 5' {AF594}, sugars by position and backbone not given here; FANA ASO)", "values": [
      {"measurement": "localization of the oligo in psyllid alimentary canal", "setting": "D. citri adults", "result": "detected mainly in the psyllid esophagus, filter chamber and anterior midgut"}
    ]}
  ]
}
